Data as given in patent publication US20240409585A1, “MACROCYCLIC IMMUNOMODULATORS” (priority 2021, published 2024).
Like-named read-outs stand apart in the source and are kept apart here. Numbered stars: 1 amine (or outer) side, 2 acyl side, 3 side chain; on linkers, the order of the positions; unused ones are H or OH. Bridge positions count the residues as written; N and C are the ends. Square brackets hold non-standard residues; d marks the D form. Peptide text beside a SMILES is read from it. * marks the point of attachment. Phe(3-CF3) = N[C@@H](Cc1cccc(C(F)(F)F)c1)C(=O)O; Ala(morpholin-4-yl) = N[C@@H](CN1CCOCC1)C(=O)O; Phe(4-CONH2) = NC(=O)c1ccc(C[C@H](N)C(=O)O)cc1; Phe(4-COOH) = N[C@@H](Cc1ccc(C(=O)O)cc1)C(=O)O; Bip = N[C@@H](Cc1ccc(-c2ccccc2)cc1)C(=O)O; Abu(3R-NH2) = C[C@@H](N)[C@H](N)C(=O)O; Phe(3-Me) = Cc1cccc(C[C@H](N)C(=O)O)c1; Abu(3S-NH2) = C[C@H](N)[C@H](N)C(=O)O; Glutaryl = O=C(CCCC(=O)[*:2])[*:1]; Val(3-OH) = CC(C)(O)[C@H](N)C(=O)O; Ala(cPr) = N[C@@H](CC1CC1)C(=O)O; hCha = N[C@@H](CCC1CCCCC1)C(=O)O; hPhe = N[C@@H](CCc1ccccc1)C(=O)O; Cha = N[C@@H](CC1CCCCC1)C(=O)O; Carboxymethyl = O=C(O)C*; NMeA = CN[C@@H](C)C(=O)O; Orn = NCCC[C@H](N)C(=O)O; Dab = NCC[C@H](N)C(=O)O; Dap = NC[C@H](N)C(=O)O

Key:
[1] = target: T1, Alexa fluor-647 labeled human PD-L1-Ig binding to Jurkat cell line over-expressing human PD-1 (Homo sapiens, UniProt Q15116); assay: Jurkat-PD-1 Cell Binding High-Content Screening Assay (CBA): Method 3 (Alexa fluor-647 labeled PD-L1-Ig); settings: Jurkat-PD-1 cells, Alexa fluor-647 labeled PD-L1-Ig 177 nM
T1 construct: expressed in transfected cells; host or cells: Jurkat
In short: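 Readout by high-content imaging of PFA-fixed, Hoechst-stained cells after 1 h with 177 nM (final) Alexa fluor-647 PD-L1-Ig. Compound was added first to hPD-1 Jurkat cells in RPMI plus 10% FCS for 2 h at 37 °C.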

[2] = target: T2, PD1-PDL1 protein-protein binding interaction [hPD1(25-167)-hIgG, hPD-L1 (19-239)-6xHis] (Homo sapiens, UniProt Q15116); assay: HTRF Assay (TR-FRET); settings: 5 nM hPD1-hIgG, 5 nM hPD-L1-6xHis, 24 hours at 25° C., head μM
T2 construct: hPD1(25-167)-hIgG, BMS
Description: A time-resolved fluorescence resonance energy transfer (TR-FRET) assay was employed to measure the inhibition of the PD1-PDL1 protein-protein binding interaction. The reaction buffer was prepared by mixing the HiBlock buffer and LANCE detection buffer (PerkinElmer, TRF1011F and CR97-100) at a 1:1 ratio. Assay reactions contained 5 nM human programmed cell death 1 [hPD1(25-167)-hIgG, BMS], 5 nM human programmed cell death ligand 1 [hPD-L1 (19-239)-6×His, BMS], in the presence of 1 nM LANCE Eu-W1024 Anti-Human IgG (Eu-anti hIgG, PerkinElmer, AD0074) and 20 nM SureLight Allophycocyanin-anti-6×His antibody (APC-anti-6×His, PerkinElmer, AD0059H). Test compounds were evaluated in a 10-point dose-response format with serial three-fold dilutions starting from a 2 uM top concentration. Reactions were carried out in a total volume of 10 uL in 384-well microtiter plates (Proxiplate white, PerkinElmer, 6008289). Plates were sealed and incubated for 24 hours at 25° C. After 24 hours, the TR-FRET signal was measured using a PerkinElmer EnVision multimode plate reader and the resulting ratiometric data set (signal at 665 nm/615 nm, multiplied by a factor of 10,000) was recorded. The concentration giving half-maximal inhibition (the IC50) was obtained by fitting the data to a four-parameter logistic equation using Graphpad Prism or Dotmatics.

[3] = head μM, read-out: CBA Method 3 μM

T1 sequence (Q15116 25-288): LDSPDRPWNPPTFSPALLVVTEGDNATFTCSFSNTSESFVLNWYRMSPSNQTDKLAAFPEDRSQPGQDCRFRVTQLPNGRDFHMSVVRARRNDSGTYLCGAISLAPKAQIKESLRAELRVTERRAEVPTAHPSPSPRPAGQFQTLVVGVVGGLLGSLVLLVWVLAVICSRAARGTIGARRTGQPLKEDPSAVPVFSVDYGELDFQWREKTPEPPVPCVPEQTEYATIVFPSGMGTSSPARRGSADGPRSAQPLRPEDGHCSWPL
T2 sequence (Q15116 25-167): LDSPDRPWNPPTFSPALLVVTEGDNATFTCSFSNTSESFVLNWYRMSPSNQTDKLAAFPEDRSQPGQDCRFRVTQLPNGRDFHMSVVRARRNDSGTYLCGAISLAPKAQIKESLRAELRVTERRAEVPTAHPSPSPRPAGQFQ

IC50 ([1]; nM, read-out: CBA Method 3) [nM] | IC50 [2] [µM] | IC50 [1, 3] [nM] | Compound
2.3 | 0.01 | – | Cc1cccc(C[C@@H]2NC(=O)[C@H](CC(=O)O)NC(=O)[C@H](Cc3ccc(OCC(=O)O)cc3)NC(=O)[C@H](CC3CC3)NC(=O)CSC[C@@H](C(=O)N[C@@H](CCN)C(N)=O)NC(=O)[C@H](CCCN)NC(=O)[C@H](C(C)C)NC(=O)[C@H](CC3CCCCC3)NC(=O)[C@H](CCN)NC(=O)[C@@H](CC(C)C)NC(=O)[C@H](C)N(C)C(=O)[C@H](CCC(N)=O)NC(=O)[C@H](Cc3ccc(-c4ccccc4)cc3)NC(=O)[C@H](Cc3ccc(C(=O)O)cc3)NC2=O)c1 [Example 5185] ({CH2CO}-[Ala(cPr)]Y(Carboxymethyl)D[Phe(3-Me)][Phe(4-COOH)][Bip]Q[NMeA][dL][Dab][Cha]V[Orn]C[Dab]-NH2; thioether N-14)
4.5 | 0.03 | – | Cc1cccc(C[C@@H]2NC(=O)[C@H](CC(=O)O)NC(=O)[C@H](Cc3ccc(OCC(=O)O)cc3)NC(=O)[C@H](CCC3CCCCC3)NC(=O)CSC[C@@H](C(=O)N[C@@H](CCN)C(N)=O)NC(=O)[C@H](CCCN)NC(=O)[C@H](C(C)C)NC(=O)[C@H](CC3CCCCC3)NC(=O)[C@H](CCN)NC(=O)[C@@H](CC(C)C)NC(=O)[C@H](C)N(C)C(=O)[C@H](CCC(N)=O)NC(=O)[C@H](Cc3ccc(-c4ccccc4)cc3)NC(=O)[C@H](Cc3ccc(C(=O)O)cc3)NC2=O)c1 [Example 5186] ({CH2CO}-[hCha]Y(Carboxymethyl)D[Phe(3-Me)][Phe(4-COOH)][Bip]Q[NMeA][dL][Dab][Cha]V[Orn]C[Dab]-NH2; thioether N-14)
– | 0.05 | 10 | CC(C)C[C@H]1NC(=O)[C@H](C)N(C)C(=O)[C@H](Cc2ccc(C(N)=O)cc2)NC(=O)[C@H](Cc2ccc(-c3ccccc3)cc2)NC(=O)[C@H](CCc2ccccc2)NC(=O)[C@H](Cc2cccc(C(F)(F)F)c2)NC(=O)[C@H](CC(=O)O)NC(=O)[C@H](Cc2ccc(C(=O)O)cc2)NC(=O)[C@H]([C@H](C)N)NC(=O)CSC[C@@H](C(=O)N[C@@H](CCN)C(N)=O)NC(=O)[C@H](CCC(N)=O)NC(=O)[C@H](C(C)(C)O)NC(=O)[C@H](CC2CCCCC2)NC(=O)[C@H](CCN)NC1=O [Example 5206] ({CH2CO}-[Abu(3S-NH2)][Phe(4-COOH)]D[Phe(3-CF3)][hPhe][Bip][Phe(4-CONH2)][NMeA][dL][Dab][Cha][Val(3-OH)]QC[Dab]-NH2; thioether N-14)
– | 0.04 | 10 | CC(C)C[C@H]1NC(=O)[C@H](C)N(C)C(=O)[C@H](CCC(N)=O)NC(=O)[C@H](Cc2ccc(-c3ccccc3)cc2)NC(=O)[C@H](CCc2ccccc2)NC(=O)[C@H](Cc2cccc(C(F)(F)F)c2)NC(=O)[C@H](CC(=O)O)NC(=O)[C@H](Cc2ccc(OCC(=O)O)cc2)NC(=O)[C@H](CN2CCOCC2)NC(=O)CSC[C@@H](C(=O)N[C@@H](CCN)C(N)=O)NC(=O)[C@H](CCC(=O)O)NC(=O)[C@H](C(C)C)NC(=O)[C@H](CC2CCCCC2)NC(=O)[C@H](CCN)NC1=O [Example 5211] ({CH2CO}-[Ala(morpholin-4-yl)]Y(Carboxymethyl)D[Phe(3-CF3)][hPhe][Bip]Q[NMeA][dL][Dab][Cha]VEC[Dab]-NH2; thioether N-14)
3.9 | 0.02 | – | Cc1cccc(C[C@@H]2NC(=O)[C@H](CC(=O)O)NC(=O)[C@H](Cc3ccc(OCC(=O)O)cc3)NC(=O)[C@H](CN3CCOCC3)NC(=O)CSC[C@@H](C(=O)N[C@@H](CCN)C(N)=O)NC(=O)[C@H](CCC(=O)O)NC(=O)[C@H](C(C)C)NC(=O)[C@H](CC3CCCCC3)NC(=O)[C@H](CCN)NC(=O)[C@@H](CC(C)C)NC(=O)[C@H](C)N(C)C(=O)[C@H](CCC(N)=O)NC(=O)[C@H](Cc3ccc(-c4ccccc4)cc3)NC(=O)[C@H](CCc3ccccc3)NC2=O)c1 [Example 5212] ({CH2CO}-[Ala(morpholin-4-yl)]Y(Carboxymethyl)D[Phe(3-Me)][hPhe][Bip]Q[NMeA][dL][Dab][Cha]VEC[Dab]-NH2; thioether N-14)
3 | 0.01 | – | Cc1cccc(C[C@@H]2NC(=O)[C@H](CC(=O)O)NC(=O)[C@H](Cc3ccc(OCC(=O)O)cc3)NC(=O)[C@H](CN3CCOCC3)NC(=O)CSC[C@@H](C(=O)N[C@@H](CCN)C(N)=O)NC(=O)[C@H](CCC(N)=O)NC(=O)[C@H](C(C)C)NC(=O)[C@H](CC3CCCCC3)NC(=O)[C@H](CCN)NC(=O)[C@@H](CC(C)C)NC(=O)[C@H](C)N(C)C(=O)[C@H](CCC(N)=O)NC(=O)[C@H](Cc3ccc(-c4ccccc4)cc3)NC(=O)[C@H](CCc3ccccc3)NC2=O)c1 [Example 5221] ({CH2CO}-[Ala(morpholin-4-yl)]Y(Carboxymethyl)D[Phe(3-Me)][hPhe][Bip]Q[NMeA][dL][Dab][Cha]VQC[Dab]-NH2; thioether N-14)
3.8 | 0.04 | – | CC(C)C[C@H]1NC(=O)[C@H](C)N(C)C(=O)[C@H](Cc2ccc(C(=O)O)cc2)NC(=O)[C@H](Cc2ccc(-c3ccccc3)cc2)NC(=O)[C@H](Cc2ccc(C(=O)O)cc2)NC(=O)[C@H](Cc2cccc(C(F)(F)F)c2)NC(=O)[C@H](CC(=O)O)NC(=O)[C@H](Cc2ccc(C(=O)O)cc2)NC(=O)[C@H](CC2CCCCC2)NC(=O)CSC[C@@H](C(=O)N[C@@H](CCN)C(N)=O)NC(=O)[C@H](CNC(=O)CCCC(=O)O)NC(=O)[C@H](C(C)C)NC(=O)[C@H](CC2CCCCC2)NC(=O)[C@H](CCN)NC1=O [Example 5229] ({CH2CO}-[Cha][Phe(4-COOH)]D[Phe(3-CF3)][Phe(4-COOH)][Bip][Phe(4-COOH)][NMeA][dL][Dab][Cha]V[Dap](Glutaryl)C[Dab]-NH2; thioether N-14)
3.6 | 0.03 | – | CC(C)C[C@H]1NC(=O)[C@H](C)N(C)C(=O)[C@H](CCC(N)=O)NC(=O)[C@H](Cc2ccc(-c3ccccc3)cc2)NC(=O)[C@H](CCc2ccccc2)NC(=O)[C@H](Cc2cccc(C(F)(F)F)c2)NC(=O)[C@H](CC(=O)O)NC(=O)[C@H](Cc2ccc(O)cc2)NC(=O)[C@H](CN2CCOCC2)NC(=O)CSC[C@@H](C(=O)N[C@@H](CCN)C(N)=O)NC(=O)[C@H](CCCN)NC(=O)[C@H](C(C)C)NC(=O)[C@H](CC2CCCCC2)NC(=O)[C@H](CCN)NC1=O [Example 5235] ({CH2CO}-[Ala(morpholin-4-yl)]YD[Phe(3-CF3)][hPhe][Bip]Q[NMeA][dL][Dab][Cha]V[Orn]C[Dab]-NH2; thioether N-14)
1.1 | 0.1 | – | CC(C)C[C@H]1NC(=O)[C@H](C)N(C)C(=O)[C@H](CCC(N)=O)NC(=O)[C@H](Cc2ccc(-c3ccccc3)cc2)NC(=O)[C@H](CCc2ccccc2)NC(=O)[C@H](Cc2cccc(C(F)(F)F)c2)NC(=O)[C@H](CC(=O)O)NC(=O)[C@H](Cc2ccc(O)cc2)NC(=O)[C@H]([C@@H](C)N)NC(=O)CSC[C@@H](C(=O)N[C@@H](CCN)C(N)=O)NC(=O)[C@H](CCCN)NC(=O)[C@H](C(C)C)NC(=O)[C@H](CC2CCCCC2)NC(=O)[C@H](CCN)NC1=O [Example 5236] ({CH2CO}-[Abu(3R-NH2)]YD[Phe(3-CF3)][hPhe][Bip]Q[NMeA][dL][Dab][Cha]V[Orn]C[Dab]-NH2; thioether N-14)
4.4 | 0.03 | – | CC(C)C[C@H]1NC(=O)[C@H](C)N(C)C(=O)[C@H](CCC(N)=O)NC(=O)[C@H](Cc2ccc(-c3ccccc3)cc2)NC(=O)[C@H](Cc2ccc(OCC(=O)O)cc2)NC(=O)[C@H](Cc2cccc(C(F)(F)F)c2)NC(=O)[C@H](CC(=O)O)NC(=O)[C@H](Cc2ccc(O)cc2)NC(=O)[C@H](CN2CCOCC2)NC(=O)CSC[C@@H](C(=O)N[C@@H](CCN)C(N)=O)NC(=O)[C@H](CCCN)NC(=O)[C@H](C(C)C)NC(=O)[C@H](CC2CCCCC2)NC(=O)[C@H](CCN)NC1=O [Example 5237] ({CH2CO}-[Ala(morpholin-4-yl)]YD[Phe(3-CF3)]Y(Carboxymethyl)[Bip]Q[NMeA][dL][Dab][Cha]V[Orn]C[Dab]-NH2; thioether N-14)
– | 0.02 | 20 | CC(C)C[C@H]1NC(=O)[C@H](C)N(C)C(=O)[C@H](CCC(N)=O)NC(=O)[C@H](Cc2ccc(-c3ccccc3)cc2)NC(=O)[C@H](Cc2ccc(OCC(=O)O)cc2)NC(=O)[C@H](Cc2cccc(C(F)(F)F)c2)NC(=O)[C@H](CC(=O)O)NC(=O)[C@H](Cc2ccc(O)cc2)NC(=O)[C@H]([C@@H](C)N)NC(=O)CSC[C@@H](C(=O)N[C@@H](CCN)C(N)=O)NC(=O)[C@H](CCCN)NC(=O)[C@H](C(C)C)NC(=O)[C@H](CC2CCCCC2)NC(=O)[C@H](CCN)NC1=O [Example 5239] ({CH2CO}-[Abu(3R-NH2)]YD[Phe(3-CF3)]Y(Carboxymethyl)[Bip]Q[NMeA][dL][Dab][Cha]V[Orn]C[Dab]-NH2; thioether N-14)
